Data reported in PubChem BioAssay (NCI).
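Cells were grown in 96-well plates and exposed to each compound for 48 hours at five concentrations; endpoints were interpolated linearly between bracketing concentrations, or set to the highest concentration if not reached. GI50: concentration for 50% inhibition of growth. TGI: total growth inhibition.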

Experiments:
Experiment in all cases: DTP human tumour cell line panel, 48 h
NCI-H460 lung = system: NCI-H460 lung
MALME-3M melanoma = system: MALME-3M melanoma
OVCAR-5 ovarian = system: OVCAR-5 ovarian
KM12 colon = system: KM12 colon
SF-539 CNS = system: SF-539 CNS
RXF 393 renal = system: RXF 393 renal
OVCAR-4 ovarian = system: OVCAR-4 ovarian
786-0 renal = system: 786-0 renal
MOLT-4 leukemia = system: MOLT-4 leukemia
NCI-H23 lung = system: NCI-H23 lung

## COC(=O)C(=O)C(C(=O)C=C(C)C)C(=O)C(=O)Nc1ccc(Cl)cc1C (stereo not given)
NCI-H460 lung
  TGI: > 100 µM
MALME-3M melanoma
  TGI: > 100 µM
OVCAR-5 ovarian
  TGI: > 100 µM
KM12 colon
  TGI: > 100 µM
SF-539 CNS
  TGI: > 100 µM
RXF 393 renal
  TGI: > 100 µM
OVCAR-4 ovarian
  TGI: > 100 µM
786-0 renal
  TGI: > 100 µM
MOLT-4 leukemia
  TGI: > 100 µM
NCI-H23 lung
  TGI: > 100 µM

## CCCCNC(=O)NS(=O)(=O)c1ccc(N2N=C(c3ccc(C)cc3C)CC2c2ccc(N(C)C)cc2)cc1 (stereo not given)
NCI-H460 lung
  GI50: 3.33 µM
  TGI: 15.9 µM
MALME-3M melanoma
  GI50: 3.08 µM
  TGI: 41.7 µM
OVCAR-5 ovarian
  GI50: 5.24 µM
  TGI: 96.1 µM
KM12 colon
  GI50: 3.72 µM
  TGI: > 100 µM
SF-539 CNS
  GI50: 3.22 µM
  TGI: 14 µM
RXF 393 renal
  GI50: 4.06 µM
  TGI: 15.7 µM
OVCAR-4 ovarian
  GI50: 5.41 µM
  TGI: > 100 µM
786-0 renal
  GI50: 5.45 µM
  TGI: > 100 µM
MOLT-4 leukemia
  GI50: 3.61 µM
  TGI: > 100 µM
NCI-H23 lung
  GI50: 4.92 µM
  TGI: > 100 µM

## O=C(O)C(Sc1ccc(Cl)cc1)Sc1ccc(Cl)cc1
NCI-H460 lung
  TGI: > 100 µM
MALME-3M melanoma
  TGI: > 100 µM
OVCAR-5 ovarian
  TGI: > 100 µM
KM12 colon
  TGI: > 100 µM
SF-539 CNS
  TGI: > 100 µM
RXF 393 renal
  TGI: > 100 µM
OVCAR-4 ovarian
  TGI: > 100 µM
786-0 renal
  TGI: > 100 µM
MOLT-4 leukemia
  TGI: > 100 µM
NCI-H23 lung
  TGI: > 100 µM

## O=[N+]([O-])c1ccc2nnnn2c1
NCI-H460 lung
  TGI: > 100 µM
MALME-3M melanoma
  TGI: 60.5 µM
OVCAR-5 ovarian
  TGI: > 100 µM
KM12 colon
  TGI: > 100 µM
SF-539 CNS
  TGI: 65.7 µM
RXF 393 renal
  TGI: > 100 µM
OVCAR-4 ovarian
  TGI: > 100 µM
786-0 renal
  TGI: > 100 µM
MOLT-4 leukemia
  TGI: > 100 µM
NCI-H23 lung
  TGI: > 100 µM

## CC(C)(C)C1=CC(=CC=C2C=CN(CCCCCCCCCCCO)C=C2)C=C(C(C)(C)C)C1=O
NCI-H460 lung
  TGI: 4.55 µM
MALME-3M melanoma
  TGI: 3.51 µM
OVCAR-5 ovarian
  TGI: 6.52 µM
KM12 colon
  TGI: 4.4 µM
SF-539 CNS
  TGI: 3.12 µM
RXF 393 renal
  TGI: 2.47 µM
OVCAR-4 ovarian
  TGI: 3.57 µM
786-0 renal
  TGI: 3.94 µM
MOLT-4 leukemia
  TGI: 4.74 µM
NCI-H23 lung
  TGI: 10.6 µM

## O=C(C[C@@H](C(=O)NCc1cccc(C(F)(F)F)c1)N1C(=O)[C@@H](N2C(=O)OC[C@@H]2c2ccccc2)[C@H]1/C=C/c1ccccc1)NC1CCN(Cc2ccccc2)CC1
NCI-H460 lung
  GI50: 6.58 µM
  TGI: 21.8 µM
MALME-3M melanoma
  GI50: 2.78 µM
  TGI: 7.39 µM
OVCAR-5 ovarian
  GI50: 13 µM
  TGI: 29.9 µM
KM12 colon
  GI50: 3.93 µM
  TGI: 16.7 µM
SF-539 CNS
  GI50: 2.03 µM
  TGI: 3.98 µM
RXF 393 renal
  GI50: 1.87 µM
  TGI: 4.88 µM
OVCAR-4 ovarian
  GI50: 1.77 µM
  TGI: 4.43 µM
786-0 renal
  GI50: 6.51 µM
  TGI: 22.6 µM
MOLT-4 leukemia
  GI50: 1.59 µM
  TGI: 6.79 µM
NCI-H23 lung
  GI50: 4.19 µM
  TGI: 17.6 µM

## CC(=O)NC(CCCN)C(=O)NCc1ccccc1 (stereo not given)
NCI-H460 lung
  TGI: > 100 µM
MALME-3M melanoma
  TGI: > 100 µM
OVCAR-5 ovarian
  TGI: > 100 µM
KM12 colon
  TGI: > 100 µM
SF-539 CNS
  TGI: > 100 µM
RXF 393 renal
  TGI: > 100 µM
OVCAR-4 ovarian
  TGI: > 100 µM
786-0 renal
  TGI: > 100 µM
MOLT-4 leukemia
  TGI: > 100 µM
NCI-H23 lung
  TGI: > 100 µM

## Nc1nccc(-c2c(-c3ccc(F)cc3)ncn2CCCN2CCOCC2)n1
NCI-H460 lung
  GI50: > 25 µM
  TGI: > 25 µM
MALME-3M melanoma
  GI50: > 25 µM
  TGI: > 25 µM
OVCAR-5 ovarian
  GI50: > 25 µM
  TGI: > 25 µM
KM12 colon
  GI50: > 25 µM
  TGI: > 25 µM
SF-539 CNS
  GI50: > 25 µM
  TGI: > 25 µM
RXF 393 renal
  GI50: > 17 µM
  TGI: > 25 µM
OVCAR-4 ovarian
  GI50: > 25 µM
  TGI: > 25 µM
786-0 renal
  GI50: > 25 µM
  TGI: > 25 µM
MOLT-4 leukemia
  GI50: > 25 µM
  TGI: > 25 µM
NCI-H23 lung
  GI50: > 25 µM
  TGI: > 25 µM

## O=C(NC1CCCCCC1)C1C(=O)N(C2CCCCCC2)C(=O)/C1=N\O (stereo not given)
NCI-H460 lung
  TGI: > 100 µM
MALME-3M melanoma
  TGI: 68.5 µM
OVCAR-5 ovarian
  TGI: > 100 µM
KM12 colon
  TGI: > 100 µM
SF-539 CNS
  TGI: 61.3 µM
RXF 393 renal
  TGI: 48.2 µM
OVCAR-4 ovarian
  TGI: > 100 µM
786-0 renal
  TGI: > 100 µM
MOLT-4 leukemia
  TGI: 57.3 µM
NCI-H23 lung
  TGI: 93.1 µM

## COc1cc2c(/C=C3/C(=O)Nc4cccc(Cl)c43)c(Cl)n(Cc3ccccc3)c2cc1C
NCI-H460 lung
  GI50: 5.46 µM
  TGI: > 56.3 µM
MALME-3M melanoma
  GI50: 14.2 µM
  TGI: 41.4 µM
OVCAR-5 ovarian
  GI50: 24.4 µM
  TGI: > 71.4 µM
KM12 colon
  GI50: 2.46 µM
  TGI: 17.9 µM
SF-539 CNS
  GI50: 3.78 µM
  TGI: > 100 µM
RXF 393 renal
  GI50: 5.05 µM
  TGI: > 29 µM
OVCAR-4 ovarian
  GI50: 7.73 µM
  TGI: > 100 µM
786-0 renal
  GI50: 3.59 µM
  TGI: 26.7 µM
MOLT-4 leukemia
  GI50: 3.7 µM
  TGI: > 100 µM
NCI-H23 lung
  GI50: 4.59 µM
  TGI: 15 µM

## COc1ccc(/C(=N/Nc2ccc([N+](=O)[O-])cc2)Sc2cc(Cl)c(C)cc2S(N)(=O)=O)cc1
NCI-H460 lung
  GI50: 5.55 µM
  TGI: 24.2 µM
MALME-3M melanoma
  GI50: 3.13 µM
  TGI: 10.1 µM
OVCAR-5 ovarian
  GI50: 7.59 µM
  TGI: 19.2 µM
KM12 colon
  GI50: 3.22 µM
  TGI: 9.96 µM
SF-539 CNS
  GI50: 3.74 µM
  TGI: 9.81 µM
RXF 393 renal
  GI50: 4.3 µM
  TGI: 11.5 µM
OVCAR-4 ovarian
  GI50: 2.61 µM
  TGI: 7.11 µM
786-0 renal
  GI50: 4.21 µM
  TGI: 14.9 µM
MOLT-4 leukemia
  GI50: 5.02 µM
  TGI: 16.5 µM
NCI-H23 lung
  GI50: 4.69 µM
  TGI: 9.77 µM
